Laboratory results reported in patent US12441768B2, “Compositions and methods for treating endometriosis” (EndoMet Biosciences, Inc., priority 2018, dated 2025).
Where a SMILES comes first, the peptide text is derived from it.

Experiments:
[1] = target: Wnt-responsive promoter (TCF/LEF); assay: Wnt-dependent luciferase reporter assay; assay type: cell-based, murine
Procedure, shortened: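 Murine 3T3 fibroblasts carrying a TCF/LEF-driven luciferase reporter, stimulated with Wnt3a in the presence of increasing peptide concentrations or vehicle. Luminescence inhibition gave EC50 values in uM.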

[2] = target: T1, β-catenin (Homo sapiens, UniProt P35222); assay: KD50 measurement using competitive fluorescence polarization (FP) with labelled TCF4; assay type: binding; conditions: fluorescence polarization, β-catenin; for Kd: read-out: β-Cat FP KD
T1 sequence (P35222 1-781): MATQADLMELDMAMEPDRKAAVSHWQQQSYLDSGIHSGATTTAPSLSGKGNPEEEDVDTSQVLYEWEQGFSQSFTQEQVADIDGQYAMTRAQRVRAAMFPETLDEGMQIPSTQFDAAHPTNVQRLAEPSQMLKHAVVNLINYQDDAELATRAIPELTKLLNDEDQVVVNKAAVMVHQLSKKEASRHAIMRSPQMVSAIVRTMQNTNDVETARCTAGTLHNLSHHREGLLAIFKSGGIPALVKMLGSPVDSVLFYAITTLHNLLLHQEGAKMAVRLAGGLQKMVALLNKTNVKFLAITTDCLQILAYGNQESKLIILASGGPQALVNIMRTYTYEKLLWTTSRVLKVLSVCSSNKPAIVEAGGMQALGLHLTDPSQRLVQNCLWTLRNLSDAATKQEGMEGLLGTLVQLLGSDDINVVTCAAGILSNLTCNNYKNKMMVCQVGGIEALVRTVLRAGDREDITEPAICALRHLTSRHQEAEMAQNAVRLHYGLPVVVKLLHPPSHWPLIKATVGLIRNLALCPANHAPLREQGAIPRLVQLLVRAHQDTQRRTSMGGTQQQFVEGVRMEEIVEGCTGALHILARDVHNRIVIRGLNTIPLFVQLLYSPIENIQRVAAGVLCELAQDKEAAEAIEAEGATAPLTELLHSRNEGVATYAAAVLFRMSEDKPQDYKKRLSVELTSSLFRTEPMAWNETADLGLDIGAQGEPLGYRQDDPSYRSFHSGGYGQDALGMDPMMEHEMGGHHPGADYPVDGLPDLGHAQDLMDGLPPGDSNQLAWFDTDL
Procedure, shortened: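 Competitive FP in which unlabelled inhibitor (10 nM to 30 uM dilution series) displaces 5 nM labelled TCF4 from 100 nM β-catenin, room temperature. Read-out ex 470 nm, em 520 nm; experiment repeated three times.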

[3] = % Viability non-Wnt responsive cells

Row | SMILES | EC50 [1] [µM] | β-Cat FP Hill slope [2] | Kd [2] [µM] | viability [3] [%]
1 | CC[C@H](C)[C@H](NC(=O)[C@H](CC(C)C)NC(=O)[C@@H](NC(=O)[C@H](Cc1c[nH]c2ccccc12)NC(=O)[C@@H](N)Cc1c[nH]c2ccccc12)[C@@H](C)CC)C(=O)N[C@@H](CO)C(=O)N[C@@H](Cc1ccccc1)C(=O)N[C@@H](Cc1c[nH]c2ccccc12)C(=O)NCC(=O)O [compound 127] (H-WWILISFWG-OH) | 7.5 to 15 | 1 | 0.4 to 1 | 120
2 | CC[C@H](C)[C@H](NC(=O)[C@H](Cc1c[nH]c2ccccc12)NC(=O)[C@@H](N)CCSC)C(=O)N[C@@H](CC(C)C)C(=O)N[C@H](C(=O)N[C@@H](CO)C(=O)NC(C)(Cc1ccccc1)C(=O)N[C@@H](Cc1c[nH]c2ccccc12)C(=O)NCC(=O)O)[C@@H](C)CC (some centres unmarked) [compound 128] (HELM PEPTIDE1{M.W.I.L.I.S.[CC(Cc1ccccc1)(N[*:1])C(=O)[*:2]].W.G}$$$$V2.0) | 7.5 to 15 | 2.15 | 0.4 to 1 | 132
3 | CC[C@H](C)[C@H](NC(=O)[C@H](CC(C)C)NC(=O)[C@@H](NC(=O)[C@H](Cc1c[nH]c2ccccc12)NC(=O)[C@@H](N)CCSC)[C@@H](C)CC)C(=O)N[C@@H](CO)C(=O)N[C@@H](CO)C(=O)N[C@@H](Cc1c[nH]c2ccccc12)C(=O)NCC(=O)O [compound 129] (H-MWILISSWG-OH) | < 7.5 | 0.87 | 0.4 to 1 | 134
4 | CC[C@H](C)[C@H](NC(=O)[C@H](Cc1c[nH]c2ccccc12)NC(=O)[C@@H](N)CCSC)C(=O)NC(C)(CC(C)C)C(=O)N[C@H](C(=O)N[C@@H](CS)C(=O)N[C@@H](Cc1ccccc1)C(=O)N[C@@H](Cc1c[nH]c2ccccc12)C(=O)NCC(=O)O)[C@@H](C)CC (some centres unmarked) [compound 130] (HELM PEPTIDE1{M.W.I.[CC(C)CC(C)(N[*:1])C(=O)[*:2]].I.C.F.W.G}$$$$V2.0) | 22.5 to 30 | 0.72 | 1 to 10 | 98.3
5 | CC[C@H](C)[C@H](NC(=O)[C@H](CC(C)C)NC(=O)C(C)(Cc1ccccc1)NC(=O)[C@H](Cc1c[nH]c2ccccc12)NC(=O)[C@@H](N)CCSC)C(=O)N[C@@H](CS)C(=O)N[C@@H](Cc1ccccc1)C(=O)N[C@@H](Cc1c[nH]c2ccccc12)C(=O)NCC(=O)O (some centres unmarked) [compound 131] (HELM PEPTIDE1{M.W.[CC(Cc1ccccc1)(N[*:1])C(=O)[*:2]].L.I.C.F.W.G}$$$$V2.0) | 7.5 to 15 | 1.27 | < 0.4 | 93.1
6 | CC[C@H](C)[C@H](NC(=O)[C@H](CC(C)C)NC(=O)[C@@H](NC(=O)C(C)(Cc1c[nH]c2ccccc12)NC(=O)[C@@H](N)CCSC)[C@@H](C)CC)C(=O)N[C@@H](CS)C(=O)N[C@@H](Cc1ccccc1)C(=O)N[C@@H](Cc1c[nH]c2ccccc12)C(=O)NCC(=O)O (some centres unmarked) [compound 132] (HELM PEPTIDE1{M.[CC(Cc1c[nH]c2ccccc12)(N[*:1])C(=O)[*:2]].I.L.I.C.F.W.G}$$$$V2.0) | 7.5 to 15 | 0.7 | < 0.4 | 102
7 | CC[C@H](C)[C@H](NC(=O)[C@H](CC(C)C)NC(=O)C(C)(Cc1ccccc1)NC(=O)[C@H](Cc1c[nH]c2ccccc12)NC(=O)[C@@H](N)CCSC)C(=O)N[C@@H](CO)C(=O)N[C@@H](Cc1ccccc1)C(=O)N[C@@H](Cc1c[nH]c2ccccc12)C(=O)NCC(=O)O (some centres unmarked) [compound 133] (HELM PEPTIDE1{M.W.[CC(Cc1ccccc1)(N[*:1])C(=O)[*:2]].L.I.S.F.W.G}$$$$V2.0) | > 30 | 3 | < 0.4 | 95.4
8 | CC[C@H](C)[C@H](NC(=O)[C@H](CC(C)C)NC(=O)[C@@H](NC(=O)C(C)(Cc1c[nH]c2ccccc12)NC(=O)[C@@H](N)CCSC)[C@@H](C)CC)C(=O)N[C@@H](CO)C(=O)N[C@@H](Cc1ccccc1)C(=O)N[C@@H](Cc1c[nH]c2ccccc12)C(=O)NCC(=O)O (some centres unmarked) [compound 134] (HELM PEPTIDE1{M.[CC(Cc1c[nH]c2ccccc12)(N[*:1])C(=O)[*:2]].I.L.I.S.F.W.G}$$$$V2.0) | > 30 | 1.47 | 1 to 10 | 97.9
9 | CC[C@H](C)[C@H](NC(=O)[C@H](CC(C)C)NC(=O)[C@H](Cc1ccccc1)NC(=O)[C@H](Cc1c[nH]c2ccccc12)NC(=O)[C@@H](N)CCSC)C(=O)N[C@@H](CS)C(=O)N[C@@H](Cc1cncn1C)C(=O)N[C@@H](Cc1c[nH]c2ccccc12)C(=O)NCC(=O)O [compound 135] (HELM PEPTIDE1{M.W.F.L.I.C.[Cn1cncc1C[C@H](N[*:1])C(=O)[*:2]].W.G}$$$$V2.0) | 7.5 to 15 | 0.7 |  | 107
10 | CC[C@H](C)[C@H](NC(=O)[C@H](Cc1c[nH]c2ccccc12)NC(=O)[C@@H](N)CCSC)C(=O)N[C@@H](CC(C)C)C(=O)N[C@H](C(=O)NC(C)(CO)C(=O)N[C@@H](Cc1ccccc1)C(=O)N[C@@H](Cc1c[nH]c2ccccc12)C(=O)NCC(=O)O)[C@@H](C)CC (some centres unmarked) [compound 136] (HELM PEPTIDE1{M.W.I.L.I.[CC(CO)(N[*:1])C(=O)[*:2]].F.W.G}$$$$V2.0) | > 30 | 0.9 | 0.4 to 1 | 106
11 | CC[C@H](C)[C@H](NC(=O)[C@H](Cc1c[nH]c2ccccc12)NC(=O)[C@@H](N)CCSC)C(=O)N[C@@H](CC(C)C)C(=O)N[C@H](C(=O)N[C@@H](C(=O)N[C@@H](Cc1ccccc1)C(=O)N[C@@H](Cc1c[nH]c2ccccc12)C(=O)NCC(=O)O)[C@H](C)O)[C@@H](C)CC [compound 137] (HELM PEPTIDE1{M.W.I.L.I.[dT].F.W.G}$$$$V2.0) | 15 to 22.5 | 0.81 | 0.4 to 1 | 93.9
12 | CC[C@H](C)[C@H](NC(=O)[C@H](Cc1c[nH]c2ccccc12)NC(=O)[C@@H](N)CCSC)C(=O)NC(C)(CC(C)C)C(=O)N[C@H](C(=O)N[C@@H](CO)C(=O)N[C@@H](Cc1ccccc1)C(=O)N[C@@H](Cc1c[nH]c2ccccc12)C(=O)NCC(=O)O)[C@@H](C)CC (some centres unmarked) [compound 138] (HELM PEPTIDE1{M.W.I.[CC(C)CC(C)(N[*:1])C(=O)[*:2]].I.S.F.W.G}$$$$V2.0) | > 30 |  | > 30 | 106
13 | CCCCCC[C@H](N)C(=O)N[C@@H](Cc1c[nH]c2ccccc12)C(=O)N[C@@H](Cc1ccccc1)C(=O)N[C@@H](CC(C)C)C(=O)N[C@H](C(=O)N[C@@H](CS)C(=O)N[C@@H](Cc1ccccc1)C(=O)N[C@@H](Cc1c[nH]c2ccccc12)C(=O)NCC(=O)O)[C@@H](C)CC [compound 139] (HELM PEPTIDE1{[CCCCCC[C@H](N)C(=O)[*:2]].W.F.L.I.C.F.W.G}$$$$V2.0) | > 30 |  | > 30 | 99.5
14 | CC[C@H](C)[C@H](NC(=O)[C@H](CC(C)C)NC(=O)[C@H](Cc1ccccc1)NC(=O)[C@H](Cc1c[nH]c2ccccc12)NC(=O)[C@@H](N)CCSC)C(=O)N[C@@H](CS)C(=O)N[C@@H](Cc1cn(C)cn1)C(=O)N[C@@H](Cc1c[nH]c2ccccc12)C(=O)NCC(=O)O [compound 140] (HELM PEPTIDE1{M.W.F.L.I.C.[Cn1cnc(C[C@H](N[*:1])C(=O)[*:2])c1].W.G}$$$$V2.0) | 15 to 22.5 | 0.7 |  | 102
15 | CCC[C@H](N)C(=O)N[C@@H](Cc1c[nH]c2ccccc12)C(=O)N[C@@H](Cc1ccccc1)C(=O)N[C@@H](CC(C)C)C(=O)N[C@H](C(=O)N[C@@H](CS)C(=O)N[C@@H](Cc1ccccc1)C(=O)N[C@@H](Cc1c[nH]c2ccccc12)C(=O)NCC(=O)O)[C@@H](C)CC [compound 141] (HELM PEPTIDE1{[Nva].W.F.L.I.C.F.W.G}$$$$V2.0) | 7.5 to 15 |  | > 30 | 100
16 | CC[C@H](C)[C@H](NC(=O)[C@H](CC(C)C)NC(=O)[C@H](Cc1ccccc1)NC(=O)[C@H](Cc1c[nH]c2ccccc12)NC(=O)[C@@H](N)CC(=O)O)C(=O)N[C@@H](CS)C(=O)N[C@@H](Cc1ccccc1)C(=O)N[C@@H](Cc1c[nH]c2ccccc12)C(=O)NCC(=O)O [compound 142] (H-DWFLICFWG-OH) | < 7.5 | 1.15 | < 0.4 | 108
17 | CC[C@H](C)[C@H](NC(=O)[C@H](CC(C)C)NC(=O)[C@H](Cc1ccccc1)NC(=O)[C@H](Cc1c[nH]c2ccccc12)NC(=O)[C@@H](N)CCSC)C(=O)N[C@@H](CCC(N)=O)C(=O)N[C@@H](Cc1ccccc1)C(=O)N[C@@H](Cc1c[nH]c2ccccc12)C(=O)NCC(=O)O [compound 143] (H-MWFLIQFWG-OH) | 7.5 to 15 |  | > 30 | 104
